Source: US20120195929A1, “COMPOUNDS THAT MODULATE AUTOIMMUNITY AND METHODS OF USING THE SAME” (priority 2009, published 2012)
“Also recorded” adds a separate entry of the source.

Experiments:
NOD mice splenocytes = assay: Ex vivo ELISPOT of splenocytes from NOD mice treated in vivo; details: 80 mg/kg/day intraperitoneal for 5 days, 10 week old female NOD mice; vs PBS
C57BL/6 splenocytes = assay: IL-10 ELISPOT, C57BL/6 splenocytes (I-A^b); format: cell-based, C57BL/6 mice; details: C57BL/6, I-A^b
From the text: (§1) Balb/c mice have I-A^d as their class II antigen presenting molecule. I-A^d is structurally similar to I-A^g7 of the NOD, with both strains having identical I-A alpha chains (17 amino acid differences in the I-A beta chains). C57BL/6 mice have I-A^b as their class II antigen presenting molecule. Both strains lack the basic pocket 9 in the peptide binding groove.

T cell hybridoma 8-1.1α1 = T cell hybridoma 8-1.1α1 response to B:9-23 peptide presented by I-A^g7; format: cell-based, mouse
From the text: B:9-23 peptide and small molecule binding to panel a) T cell hybridoma 8-1.1α1, panel b) hybridoma BDC 12-4.1, and panel c) hybridoma BDC 12-4.4. […] Dotted line is at the stimulation index of the B:9-23 peptide. TT=tetanus toxin (negative control peptide).
TT=tetanus toxin (negative control peptide). B:19(A)=substitution of the native cysteine for alanine at position 19 in B:9-23. […] Results are given as a stimulation index (SI) from triplicate cultures+s.e.m. The data are representative of at least three independent experiments. […] The figure is representative of three independent experiments.
The top 40 scoring compounds (shown in Table 1) were screened for their ability to alter anti-B:9-23 T cell responses to three different T cell hybridomas, all with the dominant conserved Vα5D-4 TCR element but different CDR3α, Jα, and TCRβ chains. […] The same assays evaluating hybridoma response were performed using 40 random compounds from the NCI/DTP repository.

I-A^g7 = assay: Direct binding of biotinylated insulin B:9-23 peptide to purified I-A^g7; parameters: species or system mouse; details: 500 nM; increasing biotinylated B:9-23; 2 h and 24 h
NOD mice = assay: Diabetes prevention study in NOD mice; details: 80 mg/kg/day i.p. 5 days per week from 4 to 21 weeks of age; p<0.001 vs PBS controls
[1] = test system: I-A^g7 congenic splenocytes; assay: IL-10 ELISPOT, splenocytes from C57BL/6 mice congenic for I-A^g7; format: cell-based; details: C57BL/6 congenic for I-A^g7
From the text: as §1

Balb/c splenocytes = assay: IL-10 ELISPOT, Balb/c splenocytes (I-A^d); format: cell-based, Balb/c mice
From the text: as §1

BDC 12-4.1 splenocytes = assay: ELISPOT and supernatant cytokines, transgenic BDC 12-4.1 Rag−/− mouse splenocytes; format: cell-based
Experimental: Number of spots for each well is shown in the upper left hand corner.
The in vitro response of a monoclonal T cell population targeted to the B:9-23 peptide (rather than hybridomas) was evaluated by enzyme-linked immunospot (ELISPOT). […] Stimulation without the addition of B:9-23 peptide was unexpected and could be due to in vivo insulin peptide-MHC complexes present in the spleen. As shown in panel d of FIG. 3, both IL-10 (FIG. 3c) and IFN-γ (FIG. 3d) were quantified in the supernatant of stimulated splenocytes.

BDC 2.5 T cell hybridoma = BDC 2.5 T cell hybridoma response to chromogranin peptide mimotope presented by I-A^g7; format: cell-based, mouse; details: chromogranin peptide mimotope presented by I-A^g7 (FIG. 2d)
NOD splenocytes = assay: IL-10 ELISPOT, in vitro culture of NOD splenocytes; details: stimulated with glyphosine and B:9-23 peptide

O=C(O)CN(CP(=O)(O)O)CP(=O)(O)O [Glyphosine, N,N-bis(phosphonomethyl)glycine]
ex vivo IFN-γ ELISPOT (NOD mice splenocytes): no change in IFN-γ | ex vivo IL-10 ELISPOT (NOD mice splenocytes): upregulation of IL-10 | IL-10 ELISPOT response to compound plus B:9-23 peptide (C57BL/6 splenocytes): failed to respond | TCR stimulation with other modified B:9-23 insulin peptides (T cell hybridoma 8-1.1α1; FIG. 2c): enhanced TCR stimulation | EC50 (T cell hybridoma 8-1.1α1; Mus musculus, T-cell, with B:9-23 peptide (FIG. 2b), read-out: EC50 concentration, enhancement of TCR stimulation): 70.6 nM | maximal stimulatory effect, fold greater than peptide alone (T cell hybridoma 8-1.1α1; at 500 nM): approximately 2.5 fold | concentration of maximal stimulatory effect (T cell hybridoma 8-1.1α1; with B:9-23 peptide): 500 nM | lowest concentration at which an effect was seen (T cell hybridoma 8-1.1α1; with B:9-23 peptide (FIG. 2b)): 10 nM | TCR stimulation, dependence on peptide (T cell hybridoma 8-1.1α1; with vs without B:9-23 peptide (FIG. 2b)): modulated TCR stimulation only when peptide is present | B:9-23 peptide binding to empty I-A^g7 (I-A^g7): directly enhance B:9-23 peptide binding | development of diabetes (NOD mice): Prevention of diabetes occurred as long as therapy was administered | IL-10 ELISPOT response to compound plus B:9-23 peptide [1]: responded | IL-10 ELISPOT response to compound plus B:9-23 peptide (Balb/c splenocytes): failed to respond | IFN-γ positive cells (ELISPOT) (BDC 12-4.1 splenocytes; in vitro, 500 nM): much smaller increase in IFN-γ positive cells | IL-10 positive cells (ELISPOT) (BDC 12-4.1 splenocytes; in vitro, 500 nM, with and without B:9-23 peptide): dramatically enhances IL-10 positive cells | IFN-γ levels in supernatant (BDC 12-4.1 splenocytes; with B:9-23 peptide, compared to peptide alone): not increased; also recorded: decreases IFN-γ levels | peptide stimulation of BDC 2.5 hybridoma (BDC 2.5 T cell hybridoma): did not enhance peptide stimulation | IL-10 producing cells (ELISPOT) (NOD splenocytes): three- to four-fold increase
